Experimental data: US20140127158A1, “COMBINATION THERAPY FOR HEPATITIS C VIRUS INFECTION” (National Health Research Institute, priority 2012, published 2014)
Like-named read-outs stand apart in the source and are kept apart here.

Assays:
[1] = tested on: HCV genotype 1b replicon (Con1); details: HCV1b replicon; Gao et al., Nature 2010; cited from earlier work
[2] = tested on: HCV genotype 2a replicon (JFH1); details: Gao et al., Nature 2010; cited from earlier work
Cytotoxicity assay (MTT) = type: cell-based; details: human
Method: (§1) (4) Cytotoxicity assay. The sensitivity of the cell lines to inhibitors was examined using a 3-(4,5-Dimethylthiazol-2-yl)-2,5-diphenyltetrazolium bromide (MTT) assay. Briefly, Huh-7.5 cells were plated at a density of 1×10^5 cells per well in 12-well plates containing 1 mL of culture medium for 4 h. Serial dilutions of the compounds or DMSO (negative control) were added, and the plates were incubated for an additional 72 h. The MTT reagent was then added to each well, and the plates were incubated for 3 h at 37° C. in a humidified 5% CO2 atmosphere before reading at a wavelength of 563 nm using an ELISA plate reader. All data are presented as the means +/−SD from four independent experiments.

[3] = tested on: HCV genotype 1b replicon (Con1); assay: Inhibitory assay for HCV replicons (luciferase), genotype 1b Con1; type: cell-based, Hepatitis C virus; details: HCV-1b replicon cell lines, single agent
Method: (2) Cell culture and HCV inhibitors. Huh-7.5 cells and their derivative HCV replicon cell lines were maintained in Dulbecco's modified Eagle's medium (DMEM, Gibco/BRL) that was supplemented with 100 U/mL penicillin-streptomycin (Gibco/BRL), 0.1 mM nonessential amino acid (NEAA, Gibco/BRL) and 10% fetal bovine serum (FBS) heat inactivated at 37° C. in 5% CO2. The HCV replicon cell lines were isolated from colonies as described in Lohman et al., Science 285:110-3 (1999). The culture medium for the replicon cells was additionally supplemented with 0.25 to 0.5 mg/mL of G418, unless specified otherwise. Compound DBPR110 and sofosbuvir were synthesized at the Institute of Biotechnology and Pharmaceutical Research at the National Health Research Institutes in Taiwan. Telaprevir (Lin et al., Antimicrob Agents Chemother, 50:1813-22 (2006)) was purchased from Acme Biosciences (Belmont, Calif.). The compounds were stored at −20° C. as 10 to 500 mM dimethyl sulfoxide (DMSO) stock solutions until the assay. IFN-α was purchased from Calbiochem (La Jolla, Calif.) and stored at −80° C.
(3) Inhibitory assay for HCV replicons. Cells were seeded at 1×10^4 (high-throughput screening assay) or 1×10^5 (regular assay) cells/well in 96- or 12-well plate, respectively, and incubated for 4 h. The medium was then aspirated and replaced with 0.1 (96-well plate) or 1 (12-well plate) mL of complete medium containing a single compound or combinations of compounds in serial concentration(s). The plates with compounds were incubated for 72 h and then assayed for luciferase expression (Promega). The EC50 of each compound was determined independently and used to determine the range of concentrations used for the combination experiments. All data are presented as the means±standard deviations (SD) from three independent experiments. The selectivity index (SI) was calculated as the ratio of the CC50 to the EC50.

HCV genotype 1b replicon = assay: Inhibitor combination study (combination index, CalcuSyn); details: at the concentrations used in the combination experiments
Huh-7.5 cells = assay: Cytotoxicity assay (MTT); type: cell-based; details: HCV-1b replicon cell lines; single agent
Method: as §1

[4] = HCV-1b replicon cell lines, single agent, read-out: CC50
[5] = Hepatitis C virus, read-out: EC50
[6] = Hepatitis C virus, read-out: EC90

Compound | EC50 [1] | EC50 [2] | CC50 at 72 h (Cytotoxicity assay (MTT); [4]) | EC50 [3, 5] | EC90 [3, 6] | cytotoxicity (HCV genotype 1b replicon) | CC50 at 72 h (Cytotoxicity assay (MTT)) | CC50 (Huh-7.5 cells) | EC50 [3] | EC90 [3]
COC(=O)N[C@H](C(=O)N1CCC[C@H]1c1nc(-c2ccc(-c3ccc(-c4c[nH]c([C@@H]5CCCN5C(=O)[C@@H](NC(=O)OC)C(C)C)n4)cc3)cc2)c[nH]1)C(C)C [BMS-790052] | 0.009 nM | 0.071 nM |  |  |  |  |  |  |  | 
CC(C)(C)NC(=O)N[C@H](C(=O)N1C[C@H]2[C@@H]([C@H]1C(=O)NC(CC1CCC1)C(=O)C(N)=O)C2(C)C)C(C)(C)C (stereo partly drawn) [Boceprevir, boceprevir, reference compound] |  |  | > 5000 nM | 361 ± 19.9 nM | 962 ± 21.5 nM | No cytotoxicity was observed |  |  |  | 
NC(=O)c1ncn([C@@H]2O[C@H](CO)[C@@H](O)[C@H]2O)n1 [Ribavirin, ribavirin, reference compound] |  |  |  | 20500 ± 3500 nM | 95000 ± 20100 nM |  | > 200000 nM |  |  | 
CC(C)OC(=O)[C@H](C)N[P@](=O)(OC[C@H]1O[C@@H](n2ccc(=O)[nH]c2=O)[C@](C)(F)[C@@H]1O)Oc1ccccc1 [Sofosbuvir, sofosbuvir, reference compound] |  |  | > 5000 nM | 91.5 ± 18.3 nM | 323 ± 66.1 nM | No cytotoxicity was observed |  |  |  | 
CCC[C@H](NC(=O)[C@@H]1[C@H]2CCC[C@H]2CN1C(=O)[C@@H](NC(=O)[C@@H](NC(=O)c1cnccn1)C1CCCCC1)C(C)(C)C)C(=O)C(=O)NC1CC1 [Telaprevir, telaprevir, reference compound] |  |  | > 5000 nM | 301.6 ± 2.8 nM | 912 ± 75.4 nM | No cytotoxicity was observed |  |  |  | 
IFN-α |  |  |  |  |  | No cytotoxicity was observed |  | >2,000 IU/mL | 35.1±4.7 IU/mL | 327.0 ± 0.01 IU/mL
